From ChEMBL document CHEMBL1201862, “PubChem BioAssay data set” (2004)
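96-well plates; 48 h exposure; 5 concentrations. Endpoints by linear interpolation between flanking doses. Not reached: highest tested concentration assigned. The concentration for 50% growth inhibition is given as GI50.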 Active and inactive are the calls of the source. Rule as the data show it: active = GI50 up to about 1.1 µM and inactive = higher.

How the values were obtained:
Experiment in all cases: DTP human tumour cell line panel, 48 h
ACHN = test system: ACHN
CAKI-1 = test system: CAKI-1
COLO 205 = test system: COLO 205
DU-145 = test system: DU-145
HCT-15 = test system: HCT-15
HL-60 = test system: HL-60
KM12 = test system: KM12
LOX IMVI = test system: LOX IMVI
MDA-MB-435 = test system: MDA-MB-435
MOLT-4 = test system: MOLT-4
NCI-H522 = test system: NCI-H522
OVCAR-3 = test system: OVCAR-3
OVCAR-5 = test system: OVCAR-5
RXF 393 = test system: RXF 393
SF-268 = test system: SF-268
SF-539 = test system: SF-539
SK-OV-3 = test system: SK-OV-3
SR = test system: SR
TK-10 = test system: TK-10
UACC-257 = test system: UACC-257

| SMILES | GI50 (ACHN) | GI50 (CAKI-1) | GI50 (COLO 205) | GI50 (DU-145) | GI50 (HCT-15) [µM] | GI50 (HL-60) | GI50 (KM12) | GI50 (LOX IMVI) | GI50 (MDA-MB-435) | GI50 (MOLT-4) | GI50 (NCI-H522) | GI50 (OVCAR-3) | GI50 (OVCAR-5) | GI50 (RXF 393) | GI50 (SF-268) | GI50 (SF-539) | GI50 (SK-OV-3) | GI50 (SR) | GI50 (TK-10) | GI50 (UACC-257) |
| --- | --- | --- | --- | --- | --- | --- | --- | --- | --- | --- | --- | --- | --- | --- | --- | --- | --- | --- | --- | --- |
| CCOC(=O)N(C)CCC1CC=CC(=O)C1c1cccc(OC)c1OC (stereo not given) | 34 µM (inactive) | 20.9 µM (inactive) | 4 µM (inactive) | 12.1 µM (inactive) | 14 | 19.4 µM (inactive) | 14.1 µM (inactive) | 38.7 µM (inactive) | 10.6 µM (inactive) | 22.5 µM (inactive) | 13.6 µM (inactive) | 11.8 µM (inactive) | 17.3 µM (inactive) | 10.5 µM (inactive) | 19.9 µM (inactive) | 9.91 µM (inactive) | 37.4 µM (inactive) | 14.3 µM (inactive) | 22.5 µM (inactive) | 13.4 µM (inactive) |
| COc1cccc(-c2ccc3c4c2O[C@H]2C(=O)CC[C@@]5(O)[C@@H](C3)N(CC3CC3)CC[C@]425)c1 | 18.1 µM (inactive) | 16.6 µM (inactive) | 13 µM (inactive) | 24.4 µM (inactive) | 13.6 | 19.1 µM (inactive) | 17.7 µM (inactive) | 16.3 µM (inactive) | 12.9 µM (inactive) | 10.2 µM (inactive) | 17.7 µM (inactive) | 14.4 µM (inactive) | 17.9 µM (inactive) | 8.53 µM (inactive) | 20.8 µM (inactive) | 14.7 µM (inactive) | 18.7 µM (inactive) | 10.3 µM (inactive) | 17.3 µM (inactive) | 25.9 µM (inactive) |
| C=C(C)C(=O)OC1CC2=CC(CC3(C)OC3C3OC(=O)C(=C)C13)OC2=O (stereo not given) | 5.41 µM (inactive) | 4.58 µM (inactive) | 2.91 µM (inactive) | 23.7 µM (inactive) | 8.07 | 1.12 µM (active) | 15.6 µM (inactive) | 4.14 µM (inactive) | 15.2 µM (inactive) | 1.84 µM (inactive) | 1.92 µM (inactive) | 10.7 µM (inactive) | 20 µM (inactive) | 2.9 µM (inactive) | 20.7 µM (inactive) | 10.9 µM (inactive) | 18.8 µM (inactive) | 2.51 µM (inactive) | 7.73 µM (inactive) | 5.41 µM (inactive) |
| CC(=O)O[C@H]1C(=O)[C@@]2(C)[C@H]([C@H](OC(=O)c3ccccc3)[C@]3(O)C[C@H](OC(=O)[C@H](O)[C@@H](NC(=O)c4cccc(N=[N+]=[N-])c4)c4ccccc4)C(C)=C1C3(C)C)[C@]1(OC(C)=O)CO[C@@H]1C[C@@H]2O | 0.327 µM (active) | 1.07 µM (active) | 0.00301 µM (active) | 0.0208 µM (active) | 0.662 | < 0.0025 µM (active) | 0.0038 µM (active) | 0.00789 µM (active) | < 0.0025 µM (active) | 0.00453 µM (active) | 0.00307 µM (active) | < 0.0025 µM (active) | 0.00893 µM (active) | 0.045 µM (active) | 0.0289 µM (active) | < 0.0025 µM (active) | 0.0122 µM (active) | < 0.0025 µM (active) | 0.117 µM (active) | 0.00621 µM (active) |
| C=C1C(=O)O[C@@H]2[C@H]1C[C@H](I)[C@@]1(C)CC[C@H](O1)[C@](C)(I)CCCC(C)[C@@H]2O (stereo not given in full) | 1.79 µM (inactive) | 1.96 µM (inactive) | 2.21 µM (inactive) | 6.19 µM (inactive) | 1.76 | 1.31 µM (inactive) | 9.04 µM (inactive) | 1.32 µM (inactive) | 4.9 µM (inactive) | 1.49 µM (inactive) | 0.311 µM (active) | 2.64 µM (inactive) | 8.69 µM (inactive) | 1.69 µM (inactive) | 12.6 µM (inactive) | 2.02 µM (inactive) | 16.6 µM (inactive) | 2 µM (inactive) | 1.75 µM (inactive) | 6.1 µM (inactive) |
| O=c1c(-c2ccc(O)cc2)coc2cc(OC3OC(CO)C(O)C(O)C3O)cc(O)c12 (stereo not given) | 54.5 µM (inactive) | 60.4 µM (inactive) | > 10 µM (inactive) | > 100 µM (inactive) | > 100 | > 10 µM (inactive) | > 100 µM (inactive) | 79.8 µM (inactive) | > 10 µM (inactive) | 43.1 µM (inactive) | 45.7 µM (inactive) | > 100 µM (inactive) | > 10 µM (inactive) | 40 µM (inactive) | 41.7 µM (inactive) | 31.1 µM (inactive) | > 10 µM (inactive) | 30.3 µM (inactive) | 33 µM (inactive) | > 100 µM (inactive) |
| c1ccc([B-]2(c3ccccc3)OCCc3cccc[n+]32)cc1 | 37.9 µM (inactive) | 33 µM (inactive) | 26.2 µM (inactive) | 88.1 µM (inactive) | 44.5 | 40.8 µM (inactive) | 96.4 µM (inactive) | 97.3 µM (inactive) | 33.3 µM (inactive) | 56.2 µM (inactive) | 49.1 µM (inactive) | 51.8 µM (inactive) | > 100 µM (inactive) | 33.3 µM (inactive) | 97.5 µM (inactive) | 28.5 µM (inactive) | 74.8 µM (inactive) | 22.8 µM (inactive) | 54.3 µM (inactive) | 80.7 µM (inactive) |
| CCOC(=O)CN1C(=O)C(=O)N(c2ccc(OC)c3ccccc23)C1=O | > 100 µM (inactive) | > 100 µM (inactive) | > 100 µM (inactive) | > 100 µM (inactive) | > 100 | > 100 µM (inactive) | > 100 µM (inactive) | > 100 µM (inactive) | > 100 µM (inactive) | > 100 µM (inactive) | > 100 µM (inactive) | > 100 µM (inactive) | > 100 µM (inactive) | > 100 µM (inactive) | > 100 µM (inactive) | > 100 µM (inactive) | > 100 µM (inactive) | > 100 µM (inactive) | > 100 µM (inactive) | > 100 µM (inactive) |
| C[N+](C)([O-])CCC=C1c2ccccc2CCc2ccccc21 | 35 µM (inactive) | 28.8 µM (inactive) | 20 µM (inactive) | 26 µM (inactive) | 27.7 | 12.6 µM (inactive) | 18.1 µM (inactive) | 1.14 µM (inactive) | 15.7 µM (inactive) | 17.2 µM (inactive) | 16.6 µM (inactive) | 23.6 µM (inactive) | 33.3 µM (inactive) | 20.5 µM (inactive) | 21.5 µM (inactive) | 36.9 µM (inactive) | 37.8 µM (inactive) | 16.7 µM (inactive) | 53.2 µM (inactive) | 35.5 µM (inactive) |
| CC(Oc1ccc(Cl)cc1Cl)C(=O)NN1C(=O)CC(=O)N(c2ccccc2)C1=S (stereo not given) | 48.1 µM (inactive) | 53.6 µM (inactive) | 33.7 µM (inactive) | 53.3 µM (inactive) | 38.2 | 0.527 µM (active) | 18.1 µM (inactive) | 55 µM (inactive) | 41.9 µM (inactive) | 46.3 µM (inactive) | 31.5 µM (inactive) | 42.5 µM (inactive) | > 100 µM (inactive) | 41 µM (inactive) | 95.1 µM (inactive) | > 100 µM (inactive) | > 100 µM (inactive) | 4.67 µM (inactive) | > 100 µM (inactive) | 74.6 µM (inactive) |
| CC(=O)CC12NC(=O)N(C)N=C1N(C)C(=O)N(C)C2=O (stereo not given) | 74.6 µM (inactive) | > 100 µM (inactive) | 52.4 µM (inactive) | > 100 µM (inactive) | 57.7 | 25.9 µM (inactive) | 52.8 µM (inactive) | 19.8 µM (inactive) | 17 µM (inactive) | 44.8 µM (inactive) | 37.7 µM (inactive) | 34.8 µM (inactive) | > 100 µM (inactive) | 68.1 µM (inactive) | 78.2 µM (inactive) | 25.7 µM (inactive) | > 100 µM (inactive) | 63.7 µM (inactive) | > 100 µM (inactive) | 18.6 µM (inactive) |
